Data: patent publication US20230099344A1, “COMPOUNDS AND METHODS FOR THE TARGETED DEGRADATION OF IRAK-4” (Arvinas Operations, Inc., priority 2021, published 2023)

biological target: T1, IRAK-4 (Homo sapiens, UniProt Q9NWZ3); test: IRAK-4 ELISA, PBMC degradation; type: cell-based; parameters: endogenous in cells; host or cells: PBMC; conditions: treated overnight
T1 sequence (Q9NWZ3 1-460): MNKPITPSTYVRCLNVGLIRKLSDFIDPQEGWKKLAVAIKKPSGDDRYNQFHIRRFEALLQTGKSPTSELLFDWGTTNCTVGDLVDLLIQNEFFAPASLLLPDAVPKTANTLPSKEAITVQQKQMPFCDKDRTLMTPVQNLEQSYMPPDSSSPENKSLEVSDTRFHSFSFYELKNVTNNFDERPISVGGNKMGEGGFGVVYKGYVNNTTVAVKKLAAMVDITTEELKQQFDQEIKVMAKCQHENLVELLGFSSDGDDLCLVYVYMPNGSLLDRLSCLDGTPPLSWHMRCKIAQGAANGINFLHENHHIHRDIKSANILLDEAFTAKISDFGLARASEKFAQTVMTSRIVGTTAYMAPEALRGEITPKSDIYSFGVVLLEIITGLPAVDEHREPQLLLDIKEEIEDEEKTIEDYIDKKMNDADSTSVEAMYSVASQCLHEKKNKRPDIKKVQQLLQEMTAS
Method: Reagents: Human IRAK-4 Matched Antibody Pair Kit (Abcam ab218182) and ELISA Accessory Pack (Abcam ab210905).
Cell Treatment and Lysis:
1. OCI-Ly10: 200,000 cells are seeded at 1×10^6/ml in 96-well U-bottom plates 200 ul per well, treated with compound the same day. Incubate overnight. 2. PBMC: 800,000 cells are seeded at 2×10^6/ml in 96-well U-bottom deep-well plates, 400 ul per well, treated with compound the same day. Incubate overnight.
Cell lysate is collected and analyzed by ELISA for IRAK-4 levels.

Structure (SMILES)	DC50	Dmax	PBMC DC90
O=C1CCC(N2C(=O)c3ccc(N4CC(F)(CN5CCC(N6Cc7cc(NC(=O)c8cnn9cccnc89)c(OC8CC8)cc7C6=O)CC5)C4)cc3C2=O)C(=O)N1 (stereo not drawn) [Example 85]	1 to 5 nM	80 to 90%	C (C represents a DC90 value ≥25.0 nM and <50 nM)
O=C1CCC(N2C(=O)c3ccc(N4CC(F)(CN5CCC(N6Cc7cc(NC(=O)c8cnn9cccnc89)c(OCC8CC8)cc7C6=O)CC5)C4)cc3C2=O)C(=O)N1 (stereo not drawn) [Example 89]	1 to 5 nM	80 to 90%	B (B represents a DC90 value ≥10.0 nM and <25.0 nM)
O=C1CCC(N2C(=O)c3ccc(N4CCN(CCOC[C@H](F)CN5Cc6cc(NC(=O)c7cnn8cccnc78)c(N7CCOCC7)cc6C5=O)CC4)cc3C2=O)C(=O)N1 (stereo partly drawn) [Example 92]	1 to 5 nM	≥ 90%	B (B represents a DC90 value ≥10.0 nM and <25.0 nM)
O=C1CCC(N2C(=O)c3ccc(N4CCC(COCCN5Cc6cc(NC(=O)c7cnn8cccnc78)c(N7CCOCC7)cc6C5=O)CC4)cc3C2=O)C(=O)N1 (stereo not drawn) [Example 95]	< 1 nM	≥ 90%	A (A represents a DC90 value <10.0 nM)
O=C1CCC(N2C(=O)c3ccc(N4CC(F)(CN5CCC(N6Cc7cc(NC(=O)c8cnn9cccnc89)c(C8CC8)cc7C6=O)CC5)C4)cc3C2=O)C(=O)N1 (stereo not drawn) [Example 100]	1 to 5 nM	≥ 90%	B (B represents a DC90 value ≥10.0 nM and <25.0 nM)
O=C1CCC(N2C(=O)c3ccc(N4CC(F)(CN5CCC(N6Cc7cc(NC(=O)c8cnn9cccnc89)c(N8CCOCC8)cc7C6=O)CC5)C4)cc3C2=O)C(=O)N1 (stereo not drawn) [Example 101]	1 to 5 nM	70 to 80%	B (B represents a DC90 value ≥10.0 nM and <25.0 nM)
O=C1CCC(N2C(=O)c3ccc(N4CC(F)(CN5CCC(N6Cc7cc(NC(=O)c8cnn9cccnc89)c(OCC(F)F)cc7C6=O)CC5)C4)cc3C2=O)C(=O)N1 (stereo not drawn) [Example 102]	1 to 5 nM	70 to 80%	C (C represents a DC90 value ≥25.0 nM and <50 nM)
O=C1CCC(N2C(=O)c3ccc(N4CC(CN5CCC(N6Cc7cc(NC(=O)c8cnn9cccnc89)c(OCC(F)F)cc7C6=O)CC5)C4)cc3C2=O)C(=O)N1 (stereo not drawn) [Example 103]	< 1 nM	80 to 90%	A (A represents a DC90 value <10.0 nM)
COc1cc(N2CC(CN3CCC(n4cc5cc(NC(=O)c6cnn7cccnc67)c(OCC6CC6)cc5n4)CC3)C2)cc2c1C(=O)N(C1CCC(=O)NC1=O)C2=O (stereo not drawn) [Example 131]	< 1 nM	≥ 90%	A (A represents a DC90 value <10.0 nM)
COc1cc(N2CCC(CN3CCC(n4cc5cc(NC(=O)c6cnn7cccnc67)c(OCC6CC6)cc5n4)CC3)CC2)cc2c1C(=O)N(C1CCC(=O)NC1=O)C2 (stereo not drawn) [Example 132]	< 1 nM	≥ 90%	A (A represents a DC90 value <10.0 nM)
CC(C)Oc1cc2nn(C3CCN(CC4CCN(c5ccc6c(c5)C(=O)N(C5CCC(=O)NC5=O)C6=O)CC4)CC3)cc2cc1NC(=O)c1cnn2cccnc12 (stereo not drawn) [Example 138]	< 1 nM	≥ 90%	A (A represents a DC90 value <10.0 nM)
CC(C)Oc1cc2nn(C3CCN(CC(F)(F)C4CN(c5ccc6c(c5)C(=O)N(C5CCC(=O)NC5=O)C6=O)C4)CC3)cc2cc1NC(=O)c1cnn2cccnc12 (stereo not drawn) [Example 147]	1 to 5 nM	≥ 90%	B (B represents a DC90 value ≥10.0 nM and <25.0 nM)
O=C1CCC(N2C(=O)c3ccc(N4CCC(CN5CCC(n6cc7cc(NC(=O)c8cnn9cccnc89)c(OCC(F)F)cc7n6)CC5)CC4)cc3C2=O)C(=O)N1 (stereo not drawn) [Example 148]	< 1 nM	80 to 90%	A (A represents a DC90 value <10.0 nM)
O=C1CCC(N2C(=O)c3ccc(N4CCC(N5CCC(n6cc7cc(NC(=O)c8cnn9cccnc89)c(OCC8CC8)cc7n6)CC5)CC4)cc3C2=O)C(=O)N1 (stereo not drawn) [Example 170]	< 1 nM	≥ 90%	A (A represents a DC90 value <10.0 nM)
O=C1CCC(N2C(=O)c3ccc(N4CCC[C@H](CN5CCC(n6cc7cc(NC(=O)c8cnn9cccnc89)c(OCC8CC8)cc7n6)CC5)C4)cc3C2=O)C(=O)N1 (stereo partly drawn) [Example 174]	1 to 5 nM	≥ 90%	B (B represents a DC90 value ≥10.0 nM and <25.0 nM)
O=C1CCC(N2C(=O)c3ccc(N4CCC[C@@H](CN5CCC(n6cc7cc(NC(=O)c8cnn9cccnc89)c(OCC8CC8)cc7n6)CC5)C4)cc3C2=O)C(=O)N1 (stereo partly drawn) [Example 175]	1 to 5 nM	≥ 90%	B (B represents a DC90 value ≥10.0 nM and <25.0 nM)
O=C1CCC(N2C(=O)c3ccc(N4CCO[C@@H](CN5CCC(n6cc7cc(NC(=O)c8cnn9cccnc89)c(OCC8CC8)cc7n6)CC5)C4)cc3C2=O)C(=O)N1 (stereo partly drawn) [Example 176]	< 1 nM	≥ 90%	A (A represents a DC90 value <10.0 nM)
O=C1CCC(N2C(=O)c3ccc(N4CCO[C@H](CN5CCC(n6cc7cc(NC(=O)c8cnn9cccnc89)c(OCC8CC8)cc7n6)CC5)C4)cc3C2=O)C(=O)N1 (stereo partly drawn) [Example 177]	< 1 nM	≥ 90%	A (A represents a DC90 value <10.0 nM)
O=C1CCC(N2C(=O)c3ccc(N4CC(O[C@H]5CC[C@H](n6cc7cc(NC(=O)c8cnn9cccnc89)c(OCC8CC8)cc7n6)CC5)C4)cc3C2=O)C(=O)N1 (stereo partly drawn) [Example 183]	1 to 5 nM	≥ 90%	B (B represents a DC90 value ≥10.0 nM and <25.0 nM)
O=C1CCC(N2C(=O)c3ccc(N4CCC(CN5CCC(n6cc7cc(NC(=O)c8cnn9cccnc89)c(C8CC8)cc7n6)CC5)CC4)cc3C2=O)C(=O)N1 (stereo not drawn) [Example 186]	1 to 5 nM	≥ 90%	A (A represents a DC90 value <10.0 nM)
CC(C)Oc1cc2nn(C3CCN(CC4CN(c5ccc6c(c5)C(=O)N(C5CCC(=O)NC5=O)C6=O)C4)CC3)cc2cc1NC(=O)c1cnn2cccnc12 (stereo not drawn) [Example 187]	< 1 nM	≥ 90%	A (A represents a DC90 value <10.0 nM)

The remaining lines, values ahead:

DC50	Dmax	PBMC DC90	Structure (SMILES)
< 1 nM	≥ 90%	A (A represents a DC90 value <10.0 nM)	CC(C)Oc1cc2c(cc1NC(=O)c1cnn3cccnc13)CN(CCOCC1CCN(c3ccc4c(c3)C(=O)N(C3CCC(=O)NC3=O)C4=O)CC1)C2=O (stereo not drawn) [Example 90]
< 1 nM	70 to 80%	A (A represents a DC90 value <10.0 nM)	O=C1CCC(N2Cc3cc(N4CC(F)(CN5CCC(N6Cc7cc(NC(=O)c8cnn9cccnc89)c(OCC8CC8)cc7C6=O)CC5)C4)ccc3C2=O)C(=O)N1 (stereo not drawn) [Example 104]
< 1 nM	≥ 90%	A (A represents a DC90 value <10.0 nM)	COc1cc(N2CC(CN3CCC(n4cc5cc(NC(=O)c6cnn7cccnc67)c(OCC6CC6)cc5n4)CC3)C2)cc2c1C(=O)N(C1CCC(=O)NC1=O)C2 (stereo not drawn) [Example 124]
< 1 nM	≥ 90%	A (A represents a DC90 value <10.0 nM)	COc1cc(N2CCC(CN3CCC(n4cc5cc(NC(=O)c6cnn7cccnc67)c(OCC6CC6)cc5n4)CC3)CC2)cc2c1C(=O)N(C1CCC(=O)NC1=O)C2=O (stereo not drawn) [Example 133]
< 1 nM	≥ 90%	A (A represents a DC90 value <10.0 nM)	CC(C)Oc1cc2nn(C3CCN(CCN4CCN(c5ccc6c(c5)C(=O)N(C5CCC(=O)NC5=O)C6=O)CC4)CC3)cc2cc1NC(=O)c1cnn2cccnc12 (stereo not drawn) [Example 137]
< 1 nM	80 to 90%	A (A represents a DC90 value <10.0 nM)	CC(C)Oc1cc2nn(C3CCN(CCC4(F)CN(c5ccc6c(c5)C(=O)N(C5CCC(=O)NC5=O)C6=O)C4)CC3)cc2cc1NC(=O)c1cnn2cccnc12 (stereo not drawn) [Example 139]
5 to 10 nM	70 to 80%	D (D represents a DC90 value ≥50 nM)	CN1CC(Oc2cc3nn(C4CCN(CC5CN(c6ccc7c(c6)C(=O)N(C6CCC(=O)NC6=O)C7=O)C5)CC4)cc3cc2NC(=O)c2cnn3cccnc23)C1 (stereo not drawn) [Example 151]
≥ 10 nM	< 70%	D (D represents a DC90 value ≥50 nM)	CN1CC(Oc2cc3nn(C4CCN(CC5CCN(c6ccc7c(c6)C(=O)N(C6CCC(=O)NC6=O)C7=O)CC5)CC4)cc3cc2NC(=O)c2cnn3cccnc23)C1 (stereo not drawn) [Example 152]
< 1 nM	≥ 90%	122 nM	O=C1CCC(N2C(=O)c3ccc(N4CC(O)(CN5CCC(n6cc7cc(NC(=O)c8cnn9cccnc89)c(OCC8CC8)cc7n6)CC5)C4)cc3C2=O)C(=O)N1 (stereo not drawn) [Example 169]
< 1 nM	≥ 90%	A (A represents a DC90 value <10.0 nM)	O=C1CCC(N2C(=O)c3ccc(N4CC(CN5CCC(n6cc7cc(NC(=O)c8cnn9cccnc89)c(C8CC8)cc7n6)CC5)C4)cc3C2=O)C(=O)N1 (stereo not drawn) [Example 185]
5 to 10 nM	≥ 90%	D (D represents a DC90 value ≥50 nM)	CC(C)Oc1cc2nn(C3CCN(CC4(F)CCN(c5ccc6c(c5)C(=O)N(C5CCC(=O)NC5=O)C6=O)CC4)CC3)cc2cc1NC(=O)c1cnn2cccnc12 (stereo not drawn) [Example 188]
